{"source": "ChEMBL document CHEMBL5543137", "about": "“Design and Synthesis of Novel Ultralong-Acting Peptides as EDP-EBP Interaction Inhibitors for Pulmonary Fibrosis Treatment” (J Med Chem, 2024)", "key": {"[1]": {"tested_on": "A549", "experiment": "Antifibrotic activity against TNFalpha-induced human A549 cells assessed as downregulation of vimentin expression level at 10 uM incubated for 24 hrs by Western blotting analysis", "type": "functional, cell-based"}, "[2]": {"experiment": "Tmax in Sprague-Dawley rat serum at 0.12 mg/kg, sc administered as single dose measured upto 10 days by LC-MS/MS method", "type": "ADME, organism-based", "conditions": "time < 10 day"}, "[3]": {"experiment": "Binding affinity to EBP (unknown origin) by ITC method", "set-up": "species or system Homo sapiens"}, "[4]": {"tested_on": "Mus musculus", "experiment": "Antifibrotic activity against BLM-induced C57BL/6 mouse pulmonary fibrosis model assessed as reduction in TIMP-1 expression at 240 ug/kg/day, sc administered for 2 weeks starting from 7 days post BLM induction and measured after 21 days post BLM induction in presence of GM6001", "type": "functional, organism-based", "conditions": "dose 240.0 µg/kg/day"}, "[5]": {"experiment": "Stability in rat serum measured upto 48 hrs by LC-MS/MS method", "type": "ADME, cell-free"}, "[6]": {"tested_on": "Mus musculus", "experiment": "Antifibrotic activity against BLM-induced C57BL/6 mouse pulmonary fibrosis model assessed as reduction in lung hydroxyproline content at 150 ug/kg, sc administered for 2 weeks starting from 7 days post BLM induction and measured after 21 days post BLM induction", "type": "functional, organism-based", "conditions": "dose 150.0 µg/kg"}, "[7]": {"tested_on": "RAW264.7", "experiment": "Upregulation of MMP-12 expression in mouse RAW264.7 cells at 10 uM incubated for 6 to 24 hrs", "type": "functional, cell-based", "conditions": "time 6-24 hrs"}, "[8]": {"tested_on": "Mus musculus", "experiment": "Antifibrotic activity against BLM-induced C57BL/6 mouse pulmonary fibrosis model assessed as reduction in FN expression at 240 ug/kg/day, sc administered for 2 weeks starting from 7 days post BLM induction and measured after 21 days post BLM induction in presence of GM6001", "type": "functional, organism-based", "conditions": "dose 240.0 µg/kg/day"}, "[9]": {"tested_on": "Mus musculus", "experiment": "Antifibrotic activity against BLM-induced C57BL/6 mouse pulmonary fibrosis model assessed as reduction in Fstl1 gene expression at 240 ug/kg/day, sc administered for 2 weeks starting from 7 days post BLM induction and measured after 21 days post BLM induction by ScRNA-sequencing analysis", "type": "functional, organism-based", "conditions": "dose 240.0 µg/kg/day"}, "[10]": {"tested_on": "Mus musculus", "experiment": "Antifibrotic activity against BLM-induced C57BL/6 mouse pulmonary fibrosis model assessed as reduction in Tnc gene expression at 240 ug/kg/day, sc administered for 2 weeks starting from 7 days post BLM induction and measured after 21 days post BLM induction by ScRNA-sequencing analysis", "type": "functional, organism-based", "conditions": "dose 240.0 µg/kg/day"}, "[11]": {"tested_on": "RAW264.7", "experiment": "Antifibrotic activity against BLM-induced mouse RAW264.7 cells assessed as upregulation of MMP-12 expression at 10 uM incubated for 6 to 24 hrs by ELISA", "type": "functional, cell-based", "conditions": "time 6-24 hrs"}, "[12]": {"tested_on": "A549", "experiment": "Antifibrotic activity against TNFalpha-induced human A549 cells assessed as downregulation of vimentin gene expression level at 10 uM incubated for 24 hrs by RT-qPCR analysis", "type": "functional, cell-based"}, "[13]": {"tested_on": "Mus musculus", "experiment": "Antifibrotic activity against BLM-induced C57BL/6 mouse pulmonary fibrosis model assessed as reduction in Des gene expression at 240 ug/kg/day, sc administered for 2 weeks starting from 7 days post BLM induction and measured after 21 days post BLM induction by ScRNA-sequencing analysis", "type": "functional, organism-based", "conditions": "dose 240.0 µg/kg/day"}, "[14]": {"experiment": "Half-life in Sprague-Dawley rat serum at 0.12 mg/kg, sc administered as single dose measured upto 10 days by LC-MS/MS method", "type": "ADME, organism-based", "conditions": "time < 10 day"}, "[15]": {"tested_on": "Mus musculus", "experiment": "Antifibrotic activity against BLM-induced C57BL/6 mouse pulmonary fibrosis model assessed as reduction in Ctgf gene expression at 240 ug/kg/day, sc administered for 2 weeks starting from 7 days post BLM induction and measured after 21 days post BLM induction by ScRNA-sequencing analysis", "type": "functional, organism-based", "conditions": "dose 240.0 µg/kg/day"}, "[16]": {"tested_on": "Mus musculus", "experiment": "Antifibrotic activity against BLM-induced C57BL/6 mouse pulmonary fibrosis model assessed as reduction in Timp1 gene expression at 240 ug/kg/day, sc administered for 2 weeks starting from 7 days post BLM induction and measured after 21 days post BLM induction by ScRNA-sequencing analysis", "type": "functional, organism-based", "conditions": "dose 240.0 µg/kg/day"}, "[17]": {"tested_on": "A549", "experiment": "Antifibrotic activity against TNFalpha-induced human A549 cells assessed as downregulation of Tgfb1 gene expression level at 10 uM incubated for 24 hrs by RT-qPCR analysis", "type": "functional, cell-based"}, "[18]": {"tested_on": "A549", "experiment": "Antifibrotic activity against BLM-induced human A549 cells cocultured with RAW264.7 cells assessed as reduction in Vimentin expression at 10 uM after 24 hrs by Western blotting analysis", "type": "functional, cell-based"}, "[19]": {"tested_on": "A549", "experiment": "Antifibrotic activity against BLM-induced human A549 cells assessed as reduction in MMP-12 expression at 10 uM after 24 hrs by Western blotting analysis", "type": "functional, cell-based"}, "[20]": {"tested_on": "Mus musculus", "experiment": "Antifibrotic activity against BLM-induced C57BL/6 mouse pulmonary fibrosis model assessed as reduction in lung Fn expression at 240 ug/kg/day, sc administered for 2 weeks starting from 7 days post BLM induction and measured after 21 days post BLM induction by Western blotting analysis", "type": "functional, organism-based", "conditions": "dose 240.0 µg/kg/day"}, "[21]": {"tested_on": "Mus musculus", "experiment": "Antifibrotic activity against BLM-induced C57BL/6 mouse pulmonary fibrosis model assessed as reduction in Thbs gene expression at 240 ug/kg/day, sc administered for 2 weeks starting from 7 days post BLM induction and measured after 21 days post BLM induction by ScRNA-sequencing analysis", "type": "functional, organism-based", "conditions": "dose 240.0 µg/kg/day"}, "[22]": {"tested_on": "Mus musculus", "experiment": "Antifibrotic activity against BLM-induced C57BL/6 mouse pulmonary fibrosis model assessed as downregulation of IL-6 gene expression in lung tissue at 150 ug/kg, sc administered for 2 weeks starting from 7 days post BLM induction and measured after 21 days post BLM induction by RT-qPCR assay", "type": "functional, organism-based", "conditions": "dose 150.0 µg/kg"}, "[23]": {"tested_on": "Mus musculus", "experiment": "Antifibrotic activity against BLM-induced C57BL/6 mouse pulmonary fibrosis model assessed as reduction in Col1a2 gene expression at 240 ug/kg/day, sc administered for 2 weeks starting from 7 days post BLM induction and measured after 21 days post BLM induction by ScRNA-sequencing analysis", "type": "functional, organism-based", "conditions": "dose 240.0 µg/kg/day"}, "[24]": {"tested_on": "Mus musculus", "experiment": "Antifibrotic activity against BLM-induced C57BL/6 mouse pulmonary fibrosis model assessed as reversal of body weight loss at 150 ug/kg, sc administered for 2 weeks starting from 7 days post BLM induction and measured after 21 days post BLM induction", "type": "functional, organism-based", "conditions": "dose 150.0 µg/kg"}, "[25]": {"tested_on": "Mus musculus", "experiment": "Antifibrotic activity against BLM-induced C57BL/6 mouse pulmonary fibrosis model assessed as improvement in lung condition at 30 to 240 ug/kg, sc administered for 2 weeks starting from 7 days post BLM induction and measured after 21 days post BLM induction", "type": "functional, organism-based", "conditions": "dose 30-240 µg/kg"}, "[26]": {"tested_on": "Mus musculus", "experiment": "Antifibrotic activity against BLM-induced C57BL/6 mouse pulmonary fibrosis model assessed as reduction in Tpm1 gene expression at 240 ug/kg/day, sc administered for 2 weeks starting from 7 days post BLM induction and measured after 21 days post BLM induction by ScRNA-sequencing analysis", "type": "functional, organism-based", "conditions": "dose 240.0 µg/kg/day"}, "[27]": {"tested_on": "Mus musculus", "experiment": "Antifibrotic activity against BLM-induced C57BL/6 mouse pulmonary fibrosis model assessed as increase in monocytes in BALF at 30 to 240 ug/kg/day, sc administered for 2 weeks starting from 7 days post BLM induction and measured after 21 days post BLM induction", "type": "functional, organism-based", "conditions": "dose 30-240 µg/kg/day"}, "[28]": {"tested_on": "RAW264.7", "experiment": "Antifibrotic activity against BLM-induced mouse RAW264.7 cells assessed as upregulation of MMP-12 protein expression at 10 uM incubated for 6 to 24 hrs by Western blotting analysis", "type": "functional, cell-based", "conditions": "time 6-24 hrs"}, "[29]": {"tested_on": "Mus musculus", "experiment": "Antifibrotic activity against BLM-induced C57BL/6 mouse pulmonary fibrosis model assessed as reduction in lung alpha-SMA expression at 240 ug/kg/day, sc administered for 2 weeks starting from 7 days post BLM induction and measured after 21 days post BLM induction by Western blotting analysis", "type": "functional, organism-based", "conditions": "dose 240.0 µg/kg/day"}}, "note": "Activity calls are given as the source filed them. The calls are words filed in the database; no cut-off is given here. Starred links: 1 amine or outer side, 2 acyl side, 3 side chain; linkers in the order of their positions; H or OH if unused. Non-standard residues stand in square brackets, D forms with d. Residues, ends and D or L forms follow the SMILES beside them. *: point of attachment. C20 diacid = O=C(O)CCCCCCCCCCCCCCCCCCC(=O)*; γGlu = O=C(O)[C@H](CCC(=O)[*:2])N[*:1]; Iva = CC[C@](C)(N)C(=O)O; PEG2 = NCCOCCOCCC(=O)O"}
{"compound": "CC[C@](C)(NC(=O)[C@@H](NC(=O)CCOCCOCCNC(=O)CCOCCOCCNC(=O)CC[C@H](NC(=O)CCCCCCCCCCCCCCCCCCC(=O)O)C(=O)O)C(C)C)C(=O)NCC(=O)N[C@@H](CO)C(=O)N1CCC[C@H]1C(=O)N[C@@H](CO)C(=O)N[C@@H](C)C(=O)N[C@@H](CCC(N)=O)C(=O)N[C@@H](CCC(=O)O)C(=O)N[C@@H](CCC(=O)O)C(=O)N[C@@H](C)C(=O)N[C@@H](CO)C(=O)N1CCC[C@H]1C(=O)N[C@@H](C)C(N)=O", "note": "({C20 diacid-γGlu-PEG2-PEG2}-V[Iva]GSPSAQEEASPA-NH2)", "values": [{"measurement": "Activity", "setting": "[1]", "value": "Active"}, {"measurement": "Tmax", "setting": "[2]", "value": 24, "unit": "h"}, {"measurement": "Kd", "setting": "[3]", "value": 117, "unit": "µM"}, {"measurement": "Activity", "setting": "[4]", "value": "inactive"}, {"measurement": "Stability", "setting": "[5]", "value": "Stable"}, {"measurement": "Activity", "setting": "[6]", "value": "Active"}, {"measurement": "Activity", "setting": "[7]", "value": "inactive"}, {"measurement": "Activity", "setting": "[8]", "value": "inactive"}, {"measurement": "Activity", "setting": "[9]", "value": "Active"}, {"measurement": "Activity", "setting": "[10]", "value": "Active"}, {"measurement": "Activity", "setting": "[11]", "value": "Active"}, {"measurement": "Activity", "setting": "[12]", "value": "Active"}, {"measurement": "Activity", "setting": "[13]", "value": "Active"}, {"measurement": "half-life", "setting": "[14]", "value": 33, "unit": "h"}, {"measurement": "Activity", "setting": "[15]", "value": "Active"}, {"measurement": "Activity", "setting": "[16]", "value": "Active"}, {"measurement": "Activity", "setting": "[17]", "value": "Active"}, {"measurement": "Activity", "setting": "[18]", "value": "Active"}, {"measurement": "Activity", "setting": "[19]", "value": "inactive"}, {"measurement": "Activity", "setting": "[20]", "value": "Active"}, {"measurement": "Activity", "setting": "[21]", "value": "Active"}, {"measurement": "Activity", "setting": "[22]", "value": "Active"}, {"measurement": "Activity", "setting": "[23]", "value": "Active"}, {"measurement": "Activity", "setting": "[24]", "value": "Active"}, {"measurement": "Activity", "setting": "[25]", "value": "Active"}, {"measurement": "Activity", "setting": "[26]", "value": "Active"}, {"measurement": "Activity", "setting": "[27]", "value": "Active"}, {"measurement": "Activity", "setting": "[28]", "value": "Active"}, {"measurement": "Activity", "setting": "[29]", "value": "Active"}]}
